From patent US20200411135A1, “Neoantigen Identification with Pan-Allele Models” (Gritstone Oncology, Inc., priority 2018, published 2020) come the findings set out here.

Peptide text beside a SMILES is read from it.

For the assay, the system named is in vitro expanded PBMCs (neoantigen-reactive T-cells) from NSCLC patients. Put plainly: IFN-gamma ELISpot on in vitro stimulated (IVS) patient PBMCs with patient-specific neoantigen peptides and peptide pools. To be noted: patient PBMCs after 14 days IVS; >2-fold increase above DMSO background considered positive. It is filed as cell-based, human. As for the experimental part: To do so, archival FFPE tumor biopsies and 5-30 ml of peripheral blood were analyzed from 9 patients with metastatic NSCLC undergoing anti-PD(L)1 therapy (Supplementary Table 1: Patient demographics and treatment information for N=9 patients studied in FIGS. 26A-C. Key fields include tumor stage and subtype, anti-PD1 therapy received, and summary of NGS results.). […] The full MS model was applied to prioritize 20 neoepitopes per patient for testing against pre-existing anti-tumor T-cell responses. To focus the analysis on likely CD8 responses, the prioritized peptides were synthesized as 8-11mer minimal epitopes (Methods), and then peripheral blood mononuclear cells (PBMCs) were cultured with the synthesized peptides in short in vitro stimulation (IVS) cultures to expand neoantigen-reactive T-cells (Supplementary Table 2). After two weeks the presence of antigen-specific T-cells was assessed using IFN-gamma ELISpot against the prioritized neoepitopes. In seven patients for whom sufficient PBMCs were available, separate experiments were also performed to fully or partially deconvolve the specific antigens recognized. The results are depicted in FIGS. 26A-C and 27A-30.
FIG. 26A depicts detection of T-cell responses to patient-specific neoantigen peptide pools for nine patients. For each patient, predicted neoantigens were combined into 2 pools of 10 peptides each according to model ranking and any sequence homologies (homologous peptides were separated into different pools). Then, for each patient, the in vitro expanded PBMCs for the patient were stimulated with the 2 patient-specific neoantigen peptide pools in IFN-gamma ELISpot. Data in FIG. 26A are presented as spot forming units (SFU) per […] plated cells with background (corresponding DMSO negative controls) subtracted. Responses of single wells (patients 1-038-001, CU02, CU03 and 1-050-001) or replicates with mean and standard deviation (all other patients) against cognate peptide pools #1 and #2 are shown for patients 1-038-001, 1-050-001, 1-001-002, CU04, 1-024-001, 1-024-002 and CU05. For patients CU02 and CU03, cell numbers allowed testing against specific peptide pool #1 only. Samples with values >2-fold increase above background were considered positive and are designated with a star (responsive donors include patients 1-038-001, CU04, 1-024-001, 1-024-002, and CU02). Unresponsive donors include patients 1-050-001, 1-001-002, CU05, and CU03. […] depicts photographs of ELISpot wells with in vitro expanded PBMCs from patient CU04, stimulated in IFN-gamma ELISpot with DMSO negative control, PHA positive control, CU04-specific neoantigen peptide pool #1, CU04-specific peptide 1, CU04-specific peptide 6, and CU04-specific peptide 8.
Pre-existing T-cells from healthy donor or patient samples were expanded in the presence of cognate peptides and IL-2 in a similar approach to that applied by Ott el al.^81 Briefly, thawed PBMCs were rested overnight and stimulated in the presence of peptide pools (10 μM per peptide, 10 peptides per pool) in ImmunoCult™-XF T-cell Expansion Medium ([…] Technologies) with 10 IU/ml rhIL-2 (R&D Systems Inc., Minneapolis, Minn.) for 14 days in 24-well tissue culture plates. Cells were seeded at 2×10^6 cells/well and fed every 2-3 days by replacing 2/3 of the culture media.
Detection of IFNγ-producing T-cells was performed by ELISpot assay^142. […]
In the case of `CC[C@H](C)[C@H](NC(=O)[C@H](CC(N)=O)NC(=O)[C@H](CCC(=O)O)NC(=O)[C@@H](N)CC(=O)O)C(=O)N[C@H](C(=O)N[C@H](C(=O)N[C@H](C(=O)N[C@@H](CCC(N)=O)C(=O)N[C@@H](Cc1ccccc1)C(=O)O)[C@@H](C)CC)[C@@H](C)O)[C@@H](C)O` (H-DENITTIQF-OH; N-terminus and C-terminus assumed), the “T-cell response / recognition in IFN-gamma ELISpot” value (shortened to “T-cell response / recognition”) is recorded as “peptide-specific T-cell response was deconvolved”.
For `CC(C)[C@H](NC(=O)[C@@H](NC(=O)[C@@H](N)CC(=O)O)[C@@H](C)O)C(=O)N[C@@H](CCC(=O)O)C(=O)N[C@@H](Cc1ccc(O)cc1)C(=O)N1CCC[C@H]1C(=O)N[C@@H](Cc1ccc(O)cc1)C(=O)N[C@H](C(=O)N[C@@H](CO)C(=O)N[C@@H](Cc1ccccc1)C(=O)O)[C@@H](C)O` (H-DTVEYPYTSF-OH; N-terminus and C-terminus assumed), the “T-cell response / recognition” value is listed as “peptide-specific T-cell response was deconvolved”.
Then `CSCC[C@H](NC(=O)[C@@H](NC(=O)[C@H](CC(C)C)NC(=O)[C@@H](NC(=O)[C@H](C)NC(=O)[C@H](C)NC(=O)[C@H](CC(=O)O)NC(=O)[C@H](C)NC(=O)[C@@H](NC(=O)[C@@H](N)CCC(=O)O)C(C)C)[C@@H](C)O)[C@@H](C)O)C(=O)O` (H-EVADAATLTM-OH; N-terminus and C-terminus assumed), with “peptide-specific T-cell response was deconvolved”.
The entry for `CC(C)C[C@H](NC(=O)[C@@H](NC(=O)[C@H](CC(=O)O)NC(=O)[C@@H](NC(=O)[C@H](CC(=O)O)NC(=O)[C@H](CCCCN)NC(=O)[C@H](CCCCN)NC(=O)[C@@H](NC(=O)CN)[C@@H](C)O)C(C)C)C(C)C)C(=O)N[C@@H](CCCCN)C(=O)O` (H-GTKKDVDVLK-OH; N-terminus and C-terminus assumed) is “recognized by CD8 T-cells”.
As for `CC(C)[C@H](NC(=O)[C@H](CCC(N)=O)NC(=O)[C@@H](NC(=O)[C@H](CO)NC(=O)[C@@H](NC(=O)[C@H](CC(=O)O)NC(=O)[C@@H](N)CCC(N)=O)C(C)C)C(C)C)C(=O)N[C@@H](CCC(=O)O)C(=O)N[C@@H](CCCNC(=N)N)C(=O)O` (H-QDVSVQVER-OH; N-terminus and C-terminus assumed), the “T-cell response / recognition” value is recorded as “peptide-specific T-cell response was deconvolved”.
